Data taken from article PMC7277793 (Biomolecules, 2020).
Counter-ions that a name gives are not always drawn.

Tests used:
[1] = target: T1, MARK4 (Homo sapiens, UniProt Q96L34); experiment: Fluorescence quenching binding study of MARK4 with DP and RT; conditions: for Kq (quenching rate constant): Kq=Ksv/τ0, τ0 2.7 × 10^−9 s; for Ksv (Stern−Volmer constant): MARK4 4 μM; for n (number of the binding site) / Kd: modified Stern−Volmer plot; for ΔG (change in Gibbs free energy): van't Hoff equation; for mode of fluorescence quenching of the MARK4 complex: from temperature dependency of Ksv and from Kq; for ΔH (change in enthalpy) / ΔS (change in entropy): van't Hoff plot over 293, 296, 298 K, same value printed in each temperature row; for Kd: K (binding constant)
T1 construct: made in house
T1 sequence (Q96L34 1-752): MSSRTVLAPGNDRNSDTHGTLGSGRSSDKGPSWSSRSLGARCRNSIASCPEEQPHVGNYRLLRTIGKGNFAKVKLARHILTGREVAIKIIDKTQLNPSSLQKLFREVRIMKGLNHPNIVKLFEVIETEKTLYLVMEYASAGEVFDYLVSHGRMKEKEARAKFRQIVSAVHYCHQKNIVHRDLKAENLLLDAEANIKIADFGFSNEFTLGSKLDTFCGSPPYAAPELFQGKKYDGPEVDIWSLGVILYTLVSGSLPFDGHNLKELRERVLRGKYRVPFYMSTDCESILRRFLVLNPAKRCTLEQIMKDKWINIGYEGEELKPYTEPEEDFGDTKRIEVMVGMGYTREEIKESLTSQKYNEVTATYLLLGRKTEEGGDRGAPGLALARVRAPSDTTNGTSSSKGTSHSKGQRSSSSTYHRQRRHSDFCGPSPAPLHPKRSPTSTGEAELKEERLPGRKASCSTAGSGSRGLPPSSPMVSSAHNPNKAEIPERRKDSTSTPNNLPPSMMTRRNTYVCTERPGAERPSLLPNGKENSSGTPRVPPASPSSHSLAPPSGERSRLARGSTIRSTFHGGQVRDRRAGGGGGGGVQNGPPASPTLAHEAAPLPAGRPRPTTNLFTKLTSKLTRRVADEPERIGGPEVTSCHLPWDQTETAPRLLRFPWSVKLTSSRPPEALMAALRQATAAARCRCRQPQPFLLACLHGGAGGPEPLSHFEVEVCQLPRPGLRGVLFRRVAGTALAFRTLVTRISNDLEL
Excerpt: The observed fluorescence intensities were corrected for the inner filter effect. Obtained data were fitted into the Stern−Volmer and modified Stern−Volmer equations to estimate Stern-Volmer constant (Ksv), binding constant (Ka), and the number of binding sites (n).
Equation (1) (van’t Hoff equation) was used to find the thermodynamic parameters such as changes in enthalpy, entropy, and Gibbs free energy associated with the reaction. (1) ΔG=−RTLnK=ΔH−TΔS
K is the obtained binding constant, ΔH is the associated enthalpy change and ΔG is the associated free Gibbs energy change. ΔS denotes the associated entropy change with reaction, and R is the universal gas constant.
The slope of the van’t Hoff plot (LnK on Y-axis against 1/T on the X-axis) gives the value of −ΔH/R, and the intercept giving the value of ΔS/R.
The intrinsic fluorescence of protein due to tryptophan is often used to get an insight into the ligand binding to the protein because binding often leads to changes in the surrounding environment around tryptophan residues which corresponds to observed changes in fluorescence. The recombinant MARK4 was expressed and purified to carry out all binding studies.
Ksv was obtained from the slope of this plot at a fixed intercept after linear regression using the Stern−Volmer equation (Equation (2)). (2) F0/F=1+Ksv[C]
The SV plot of combined quenching (both static and dynamic) is characteristically an upward curvature while the linear Stern−Volmer plot depicts that only one mode of quenching was operative. […] The linear plot and upward curvature are not enough to define the quenching type. […] Equation (3) uses Ksv and τo (average integral fluorescence lifetime of tryptophan) (2.7 × 10^−9 s) to find biomolecular quenching rate constant (Kq) (3) Kq=Ksv/τ0
To get insights into other binding parameters, Equation (4) was used. This equation gives binding constant (K) and the number of binding sites (n). (4) logF0−F/F=logK+nlog[C]

[2] = target: T1, MARK4; experiment: Isothermal titration calorimetry; type: binding; conditions: ITC, 25 °C, 20 µM MARK4; for Kd: 100 µM DP or 200 µM RT in syringe
Procedure: Isothermal titration calorimetry (ITC) measurements were carried out on a VP-ITC microcalorimeter (MicroCal, Inc, GE, MicroCal, Northampton, MA, USA) at 25 °C. All the solutions were degassed in thermovac for 20 min to remove air bubbles. For sample preparation, recombinant MARK4 was extensively dialyzed in 20 mM Tris buffer, pH 8.5. […] We used standard protocol to run the ITC in which the first injection was a false injection of 2 μL followed by injections of 10 μL of the ligands at a span of 260 s intervals into the sample cell. The stirring rate was maintained at 320 rpm. The obtained titration data were analyzed by Origin 8.0 software to estimate thermodynamic parameters such as stoichiometry of binding (n), enthalpy change (ΔH), an association constant (Ka).

[3] = target: T1, MARK4; experiment: ATPase inhibition assay (malachite green, BIOMOL reagent); type: biochemical; conditions: MARK4 4 μM, ligand 0–20 μM, pre-incubated 60 min, 200 μM ATP, 25 °C; AAT Bioquest calculator
Procedure: The activity of MARK4 was measured using standard malachite green (BIOMOL® reagent, Enzo Life Sciences) microtitre-plate assay using previously-published protocols [17, 40].
Initially, MARK4 (4 μM) was pre-incubated with increasing concentrations of ligands at room temperature for 60 min in a 96-well plate. Subsequently, 200 μM of freshly-prepared ATP was mixed to the reaction mixture and incubated for 15–20 min at 25 °C. At the end of this time, BIOMOL® reagent was added and kept for 15–20 min. The intensity of color was spectrophotometrically measured at 620 nm.

Row | Compound | TΔS ([1]; 293 K) [kcal/mol] | Kq (quenching rate constant) ([1]; 293 K) | n (number of the binding site) ([1]; 293 K) | ΔG (change in Gibbs free energy) ([1]; 293 K) [kcal/mol] | TΔS ([1]; 296 K) [kcal/mol] | Kq (quenching rate constant) ([1]; 296 K) | n (number of the binding site) ([1]; 296 K) | ΔG (change in Gibbs free energy) ([1]; 296 K) [kcal/mol] | TΔS ([1]; 298 K) [kcal/mol] | Kq (quenching rate constant) ([1]; 298 K) | n (number of the binding site) ([1]; 298 K) | mode of fluorescence quenching of the MARK4 complex [1] | ΔH (change in enthalpy) [1] [kcal/mol] | ΔS (change in entropy) [1] [cal mol^−1K^−1] | ∆S1 [2] [cal/mol/deg] | ∆S2 [2] [cal/mol/deg] | other results
1 | COc1cc2c(cc1OC)C(=O)C(CC1CCN(Cc3ccccc3)CC1)C2 (stereo not drawn) [DP, Donepezil] | -126.79 | 6.85 10^14 M^−1 s^−1 | 1.66 | -10.70 | -128.09 | 5.81 10^14 M^−1 s^−1 | 1.311 | -9.40 | -128.95 | 5.03 10^14 M^−1 s^−1 | 0.1 | static mode | -137.5 | −432.749 | 51.2 | -207 | Ksv (Stern−Volmer constant) ([1]; 293 K, DP 0−200 nM): 18.5 10^5 M^−1; Ksv (Stern−Volmer constant) ([1]; 296 K, DP 0−200 nM): 15.7 10^5 M^−1; Ksv (Stern−Volmer constant) ([1]; 298 K, DP 0−200 nM): 13.6 10^5 M^−1; ∆S3 [2]: 368 cal/mol/deg; ∆S4 [2]: -327 cal/mol/deg
2 | CCN(C)C(=O)Oc1cccc([C@H](C)N(C)C)c1 [RT, rivastigmine tartrate] | -133.48 | 1.25 10^13 M^−1 s^−1 | 1.66 | -10.74 | -135.76 | 1.44 10^13 M^−1 s^−1 | 1.311 | -8.46 | -138.04 | 2.14 10^13 M^−1 s^−1 | 0.94 | combination of static and dynamic modes of quenching | -144.23 | −455.78 | 31.1 | -700 | IC50 [3]: 6.74 µM; Ksv (Stern−Volmer constant) ([1]; 293 K, RT 0−9 µM): 3.4 10^4 M^−1; Ksv (Stern−Volmer constant) ([1]; 296 K, RT 0−9 µM): 3.9 10^4 M^−1; Ksv (Stern−Volmer constant) ([1]; 298 K, RT 0−9 µM): 5.8 10^4 M^−1; ΔG (change in Gibbs free energy) ([1]; 298 K): -6.18 kcal/mol; Kd ([1]; 293 K): 0.00952 µM; Kd ([1]; 296 K): 0.625 µM; Kd ([1]; 298 K): 50 µM; Kd ([2]; read-out: Ka1 (association constant) (converted)): 9.8 µM; Kd ([2]; read-out: Ka2 (association constant) (converted)): 8.55 µM; Kd ([2]; read-out: Ka3 (association constant) (converted)): 5 µM
